Assay results reported in US9290478B2, “Substituted quinoxalines as FGFR kinase inhibitors” (ASTEX THERAPEUTICS LTD, priority 2010, dated 2016).

How the values were obtained:
[1] = target: T1, Ba/F3-Flt3-transfected cells (Homo sapiens, UniProt P36888, cells depend on it, form not given); assay: Ba/F3-Flt3 (minus IL3 or plus IL3) cellular proliferation assay; type: cell-based; conditions: minus IL3
T1 construct: BAF3-FLT3 (MIN IL3) pIC50; other: minus IL3
T1 sequence (P36888 1-993): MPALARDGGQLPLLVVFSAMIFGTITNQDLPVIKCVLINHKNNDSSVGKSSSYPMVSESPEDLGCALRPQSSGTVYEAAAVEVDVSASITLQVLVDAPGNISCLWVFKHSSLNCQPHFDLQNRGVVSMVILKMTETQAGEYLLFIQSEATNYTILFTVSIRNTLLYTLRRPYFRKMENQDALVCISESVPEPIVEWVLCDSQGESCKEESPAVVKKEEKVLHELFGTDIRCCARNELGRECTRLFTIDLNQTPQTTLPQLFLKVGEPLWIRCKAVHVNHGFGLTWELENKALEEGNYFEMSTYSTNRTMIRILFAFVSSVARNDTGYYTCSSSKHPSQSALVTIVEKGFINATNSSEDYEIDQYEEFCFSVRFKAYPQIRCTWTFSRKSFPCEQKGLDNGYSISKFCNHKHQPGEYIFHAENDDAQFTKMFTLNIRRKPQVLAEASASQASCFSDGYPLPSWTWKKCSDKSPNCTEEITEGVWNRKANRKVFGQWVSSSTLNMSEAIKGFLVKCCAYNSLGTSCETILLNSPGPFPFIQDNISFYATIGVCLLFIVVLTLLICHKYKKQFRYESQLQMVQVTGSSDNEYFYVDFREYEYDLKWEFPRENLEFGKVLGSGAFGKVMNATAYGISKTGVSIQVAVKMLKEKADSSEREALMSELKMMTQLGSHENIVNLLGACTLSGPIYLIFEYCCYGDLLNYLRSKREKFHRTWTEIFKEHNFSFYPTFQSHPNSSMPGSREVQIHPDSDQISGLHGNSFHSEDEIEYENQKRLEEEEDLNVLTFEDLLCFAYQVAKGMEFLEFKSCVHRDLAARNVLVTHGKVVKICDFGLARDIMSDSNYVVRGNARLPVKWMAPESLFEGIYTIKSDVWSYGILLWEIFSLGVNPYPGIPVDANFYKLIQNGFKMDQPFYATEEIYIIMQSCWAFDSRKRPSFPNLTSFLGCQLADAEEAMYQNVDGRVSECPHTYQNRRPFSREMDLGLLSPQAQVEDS
Procedure: (§1) Ba/F3-Flt3 (Minus IL3 or Plus IL3) (Cellular Proliferation Assay)
(§2) In a 384 well plate, 100 nl of compound dilution in DMSO was sprayed before adding 50 μl cell culture medium (phenol red free RPMI-1640, 10% FBS, 2 mM L-Glutamine and 50 μg/ml Gentamycin) containing 20000 cells per well of Ba/F3-Flt3-transfected cells. Cells were put in an incubator at 37° C. and 5% CO2. After 24 hours, 10 μl of Alamar Blue solution (0.5 mM K3Fe(CN)6, 0.5 mM K4Fe(CN)6, 0.15 mM Resazurin and 100 mM Phosphate Buffer) was added to the wells, incubated for 4 hours at 37° C. and 5% CO2 before RFU's (Relative Fluorescence Units) (ex. 540 nm., em. 590 nm.) were measured in a fluororescence plate reader.
(§3) In this assay, the inhibitory effect of different compound concentrations (range 10 μM to 0.1 nM) was determined and used to calculate an IC50 (M) and pIC50 (−log IC50) value.
(§4) As a counterscreen the same experiment was performed in the presence of 10 ng/ml murine IL3.

[2] = tested on: Ba/F3-Flt3-transfected cells; assay: as above; type: cell-based; conditions: 24 h; plus 10 ng/ml murine IL3 (counterscreen); read-out: BAF3_FLT3 (PLUS IL3) pIC50 (converted)
Procedure: as §1, §2, §3, §4

[3] = tested on: Ba/F3-FGFR1-transfected cells; assay: Ba/F3-FGFR1 (minus IL3 or plus IL3) cellular proliferation assay; type: cell-based; conditions: 24 h; plus 10 ng/ml murine IL3 (counterscreen); read-out: BAF3-FGFR1 (PLUS IL3) pIC50 (converted)
Procedure: (§5) Ba/F3-FGFR1 (Minus IL3 or Plus IL3) (Cellular Proliferation Assay)
as §2, with “Ba/F3-FGFR1-transfected” for “Ba/F3-Flt3-transfected”
as §3, §4

[4] = target: T2, Ba/F3-FGFR1-transfected cells (Homo sapiens, UniProt P11362); assay: as above; type: cell-based; conditions: minus IL3
T2 construct: BAF3-FGFR1 (MIN IL3) pIC50; other: minus IL3
Procedure: as §5
as §2, with “Ba/F3-FGFR1-transfected” for “Ba/F3-Flt3-transfected”
as §3, §4

FGFR3 (h) = FGFR3 (h) (Homo sapiens, UniProt P22607); assay: FGFR3 (enzymatic assay), TR-FRET; type: biochemical; conditions: 25 μM ATP; read-out: FGFR3 pIC50 (converted)
Procedure: In a final reaction volume of 30 μL, FGFR3 (h) (40 ng/ml) was incubated with 50 mM HEPES pH 7.5, 6 mM MnCl2, 1 mM DTT, 0.1 mM Na3VO4, 0.01% Triton-X-100, 500 nM Btn-Flt3 and 25 μM ATP in the presence of compound (1% DMSO final). After incubation for 60 minutes at room temperature the reaction was stopped with 2.27 nM EU-anti P-Tyr, 7 mM EDTA, 31.25 nM SA-XL-665 and 0.02% BSA which was present for 60 minutes at room temperature. Time-Resolved Fluorescence Resonance Energy Transfer (TR-FRET) signal (ex340 nm. Em 620 nm, em 655 nm) was measured afterwards and results are expressed in RFU (Relative Fluorescence Units). In this assay, the inhibitory effect of different compound concentrations (range 10 μM to 0.1 nM) was determined and used to calculate an IC50 (M) and pIC50 (−log IC50) value.

T2 sequence (P11362 whole entry, change not shown): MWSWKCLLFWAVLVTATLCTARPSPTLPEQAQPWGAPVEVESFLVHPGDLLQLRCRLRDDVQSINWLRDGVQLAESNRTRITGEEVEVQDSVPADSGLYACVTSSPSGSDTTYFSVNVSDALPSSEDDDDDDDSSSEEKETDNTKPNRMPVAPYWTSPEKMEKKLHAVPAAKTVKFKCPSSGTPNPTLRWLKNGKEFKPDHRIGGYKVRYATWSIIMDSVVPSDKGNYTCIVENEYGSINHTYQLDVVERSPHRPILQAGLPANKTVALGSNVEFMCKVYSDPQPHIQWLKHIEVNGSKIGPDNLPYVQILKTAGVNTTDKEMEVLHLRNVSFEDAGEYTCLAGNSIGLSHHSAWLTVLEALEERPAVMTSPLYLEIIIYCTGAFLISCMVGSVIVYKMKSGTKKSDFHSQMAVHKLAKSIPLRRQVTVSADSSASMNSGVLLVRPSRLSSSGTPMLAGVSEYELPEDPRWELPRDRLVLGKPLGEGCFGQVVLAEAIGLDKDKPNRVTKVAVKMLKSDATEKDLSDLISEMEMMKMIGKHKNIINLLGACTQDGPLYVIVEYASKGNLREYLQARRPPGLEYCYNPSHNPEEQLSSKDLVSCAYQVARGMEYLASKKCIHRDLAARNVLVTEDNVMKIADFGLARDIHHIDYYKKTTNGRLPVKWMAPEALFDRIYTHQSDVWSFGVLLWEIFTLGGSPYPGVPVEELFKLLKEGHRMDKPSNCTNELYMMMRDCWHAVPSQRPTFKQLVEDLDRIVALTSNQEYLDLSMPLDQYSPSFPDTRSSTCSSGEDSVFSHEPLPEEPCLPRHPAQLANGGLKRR
Sequence of FGFR3 (h) (P22607 23-806): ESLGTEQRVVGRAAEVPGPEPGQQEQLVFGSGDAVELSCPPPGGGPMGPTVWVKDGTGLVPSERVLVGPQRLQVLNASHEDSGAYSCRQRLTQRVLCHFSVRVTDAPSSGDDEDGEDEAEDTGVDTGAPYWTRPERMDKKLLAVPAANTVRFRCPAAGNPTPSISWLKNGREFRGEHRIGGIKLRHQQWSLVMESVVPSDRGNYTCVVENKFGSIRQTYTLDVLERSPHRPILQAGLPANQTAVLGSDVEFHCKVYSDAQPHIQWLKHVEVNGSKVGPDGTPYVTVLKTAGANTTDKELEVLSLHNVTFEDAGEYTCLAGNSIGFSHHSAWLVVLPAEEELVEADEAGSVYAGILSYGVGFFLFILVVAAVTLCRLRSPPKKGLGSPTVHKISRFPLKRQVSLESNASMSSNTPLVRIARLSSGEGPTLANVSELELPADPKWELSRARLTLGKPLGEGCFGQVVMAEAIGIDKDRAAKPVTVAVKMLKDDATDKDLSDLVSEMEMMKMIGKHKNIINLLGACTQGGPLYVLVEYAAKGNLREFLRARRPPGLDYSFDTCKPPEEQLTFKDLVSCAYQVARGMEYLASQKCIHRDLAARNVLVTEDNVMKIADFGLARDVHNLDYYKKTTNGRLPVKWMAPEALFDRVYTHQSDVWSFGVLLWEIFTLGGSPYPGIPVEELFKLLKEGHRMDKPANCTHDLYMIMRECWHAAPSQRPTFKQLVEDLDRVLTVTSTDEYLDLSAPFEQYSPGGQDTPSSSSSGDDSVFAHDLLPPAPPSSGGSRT

## COc1cc(OC)cc(C(CC(=O)NC(C)C)c2ccc3ncc(-c4cnn(C)c4)nc3c2)c1 (stereo not drawn) [Compound 23]
[1]
  BAF3-FLT3 (MIN IL3) pIC50: <5
[2]
  IC50: > 10 µM
[3]
  IC50: > 10 µM
[4]
  BAF3-FGFR1 (MIN IL3) pIC50: <5
FGFR3 (h)
  IC50: > 1 µM

## COc1cc(OC)cc(C(CC(C)(O)CNC(C)C)c2ccc3ncc(-c4cnn(C)c4)nc3c2)c1.Cl (stereo not drawn) [Compound 25]
[1]
  BAF3-FLT3 (MIN IL3) pIC50: <5
[2]
  IC50: > 10 µM
[3]
  IC50: > 10 µM
[4]
  BAF3-FGFR1 (MIN IL3) pIC50: <5
FGFR3 (h)
  IC50: 0.708 µM

## Cn1cc(-c2cnc3ccc(C(O)c4ccccc4)cc3n2)cn1 (stereo not drawn) [Compound 28]
[1]
  BAF3-FLT3 (MIN IL3) pIC50: <5
[2]
  IC50: > 10 µM
[3]
  IC50: > 10 µM
[4]
  BAF3-FGFR1 (MIN IL3) pIC50: <5
FGFR3 (h)
  IC50: 3.72 µM

## COc1cc(OC)cc(C(CCNC(C)C)c2ccc3ncc(-c4cnn(C)c4)nc3c2)c1.Cl (stereo not drawn) [Compound 29, {3-(3,5-Dimethoxy-phenyl)-3-[3-(1-methyl-1H-pyrazol-4-yl)-quinoxalin-6-yl]-propyl}-isopropyl-amine]
[1]
  BAF3-FLT3 (MIN IL3) pIC50: <5
[2]
  IC50: > 10 µM
[3]
  IC50: > 10 µM
[4]
  BAF3-FGFR1 (MIN IL3) pIC50: 6.18
FGFR3 (h)
  IC50: 0.0355 µM

## COc1cc(OC)cc(C2(c3ccc4ncc(-c5cnn(C)c5)nc4c3)CC2)c1 [Compound 30]
[1]
  BAF3-FLT3 (MIN IL3) pIC50: <5
[2]
  IC50: > 10 µM
[3]
  IC50: > 10 µM
[4]
  BAF3-FGFR1 (MIN IL3) pIC50: 5.23
FGFR3 (h)
  IC50: 0.0437 µM

## COc1cc(OC)cc(C(CCNCC(F)(F)F)c2ccc3ncc(-c4cnn(C)c4)nc3c2)c1.Cl (stereo not drawn) [Compound 33]
[1]
  BAF3-FLT3 (MIN IL3) pIC50: <5
[2]
  IC50: > 10 µM
[3]
  IC50: > 10 µM
[4]
  BAF3-FGFR1 (MIN IL3) pIC50: 5.11
FGFR3 (h)
  IC50: 0.138 µM

## COc1cc(OC)cc(/C(=C/CN(C)C)c2ccc3ncc(-c4cnn(C)c4)nc3c2)c1 [Compound 34]
[1]
  BAF3-FLT3 (MIN IL3) pIC50: <5
[2]
  IC50: > 10 µM
[3]
  IC50: > 10 µM
[4]
  BAF3-FGFR1 (MIN IL3) pIC50: 5.08
FGFR3 (h)
  IC50: 0.107 µM

## CN(C)CCC(c1ccccc1)c1ccc2ncc(-c3cnn(C)c3)nc2c1 (stereo not drawn) [Compound 35]
[1]
  BAF3-FLT3 (MIN IL3) pIC50: <5
[2]
  IC50: > 10 µM
[3]
  IC50: > 10 µM
[4]
  BAF3-FGFR1 (MIN IL3) pIC50: <5
FGFR3 (h)
  IC50: > 1 µM

## COc1cc(OC)cc(C(CCCN)c2ccc3ncc(-c4cnn(C)c4)nc3c2)c1.Cl (stereo not drawn) [Compound 40]
[1]
  BAF3-FLT3 (MIN IL3) pIC50: <5
[2]
  IC50: > 10 µM
[3]
  IC50: > 10 µM
[4]
  BAF3-FGFR1 (MIN IL3) pIC50: 5
FGFR3 (h)
  IC50: 0.269 µM
